Measured values reported in article PMC4707509, “TSPO ligand residence time: a new parameter to predict compound neurosteroidogenic efficacy” (Scientific Reports, 2016).
Like-named read-outs stand apart in the source and are kept apart here.

Tests used:
TSPO [1] = tested on: TSPO; parameters: method as in PMID 25654303; details: relative to XBD173; cited from earlier work
neurosteroid synthesis = tested on: neurosteroid synthesis; parameters: method as in PMID 25654303; details: relative to XBD173; cited from earlier work
TSPO [2] = target: T1, TSPO (Rattus norvegicus, UniProt P16257); assay: Simplified (one-concentration) competition kinetic association assay; assay type: binding; details: for dissociation rate of the ligand from TSPO (rapid or slow competitor of [3H]PK11195): shape of [3H]PK11195 association curve, ligand at three-fold Ki; for Kd / koff / kon: unlabeled ligand at three-fold Ki only; for Kd: read-out: Kinetically-derived Kd = Koff/Kon
T1 construct: Membranes from rat kidneys were prepared as described previously; from tissue; host or cells: rat kidney membranes
Procedure: The unlabeled TSPO ligand kinetic parameters were assessed using the theoretical model of Motulsky and Mahan[32]. Unlike methods in which one compound is pre-equilibrated with the receptor, this approach involves the simultaneous addition of both radioligand and competitor to receptor preparation, so that at t = 0 all receptors are unoccupied. […] The degree of bound to TSPO was assessed at multiple time points by filtration harvesting and liquid scintillation counting, as above described. […] For ‘simplified’ competition kinetic association assays, the experiments were performed using concentration of unlabeled TSPO ligands corresponding to three-fold their Ki.
Association and dissociation rates for unlabeled TSPO ligands were calculated by fitting the data in the competition association model using the ‘kinetics of competitive binding’ assay, defining the amount of radioligand bound to receptor ([RL]) as a function of time[32]: […]

rat C6 glioma cells = assay: Pregnenolone production in C6 glioma cells (ELISA); assay type: cell-based; details: for Emax at 100 µM / EC50: Rattus norvegicus, 2 h; for Emax at 100 µM: read-out: Emax (at 100 μM) (vehicle set to 100%); for EC50: read-out: EC50 (pregnenolone production); for steroidogenic efficacy, ranking in words: among all tested TSPO ligands
TSPO [3] = target: T1, TSPO; assay: [3H]PK11195 binding displacement assay, rat kidney membranes; details: read-out: Equilibrium Ki
Procedure: (§1) Membranes from rat kidneys were prepared as described previously. All the experimental procedures were carried out following the guidelines of the European Community Council Directive 86–609 and have been approved by the Committee for animal experimentation of the University of Pisa. The resulting membrane pellets were aliquoted and frozen at –20 °C. For all radioligand binding assays, an aliquot of membranes was thawed, suspended in assay buffer (AB, Tris-HCl 50 mM, pH 7.4) and homogenized using Ultraturrax. In cell membrane homogenate, protein content was measured by the Bradford method[52] using the Bio-Rad Protein Assay reagent.
(§2) All experiments were analyzed by either linear or non linear regression using Prism 5.0 (GraphPad Software Inc., San Diego, CA). […] Competition displacement binding were fitted to sigmoidal (variable slope) curves.

rat = details: cited from earlier work; for anxiolytic activity in EPM test: rat
GABAA receptor = tested on: GABAA receptor; parameters: method as in PMID 20728278; details: conditioned medium of treated glial cells; cited from earlier work
human glial cell model = tested on: human glial cell model; parameters: method as in PMID 20728278; details: cited from earlier work
TSPO [4] = target: T1, TSPO; assay: [3H]PK11195 binding saturation assay, rat kidney membranes; details: [3H]PK11195 saturation binding
Procedure: as §1, §2

[5] = pregnenolone production at 100 μM ligand, C6 cells
[6] = C6 cells, 0-100 μM ligand, serum-free
[7] = displacement of 1 nM [3H]PK11195, rat kidney membranes, 0 °C

| Structure (SMILES) | dissociation rate of the ligand from TSPO (rapid or slow competitor of [3H]PK11195) (TSPO [2]) | Kd (TSPO [2]) [nM] | Emax at 100 µM (rat C6 glioma cells; [5]) [%] | EC50 (rat C6 glioma cells; [6]) [nM] | Ki (TSPO [3]; [7]) [nM] | koff (TSPO [2]) [s⁻¹] | kon (TSPO [2]) [M⁻¹ s⁻¹] | Ki (TSPO [3]) [nM] | further results |
| --- | --- | --- | --- | --- | --- | --- | --- | --- | --- |
| CCNC1=Nc2ccc(Cl)cc2C(C)(c2ccccc2)O1 (stereo not shown) [Etifoxine] |  |  |  |  |  |  |  |  | binding affinity to TSPO, fold lower than XBD173 (TSPO [1]): approximately 140 fold; potency to stimulate neurosteroidogenesis compared with XBD173 (neurosteroid synthesis): more potent |
| CCCN(CCC)C(=O)C(=O)c1c(-c2ccccc2)[nH]c2ccccc12 [PIGA719] | rapid | 11.9 ± 1 | 146 ± 2 | 12900 ± 1500 | 12.2 ± 1.1 |  |  |  |  |
| CCCCCCN(CCCCCC)C(=O)C(=O)c1c(-c2ccccc2)[nH]c2ccccc12 [PIGA720] | rapid | 1.79 ± 0.24 | 144 ± 4 | 29700 ± 3100 | 1.4 ± 0.28 |  |  |  |  |
| CCCCCCN(CCCCCC)C(=O)C(=O)c1c(-c2ccccc2)[nH]c2ccc(Cl)cc12 [PIGA745] | rapid | 15.1 ± 1.16 | 140 ± 5 | 34600 ± 3600 |  | 0.000967 | 64000 | 13.1 ± 1.16 |  |
| CCN(Cc1ccccc1)C(=O)C(=O)c1c(-c2ccc(Cl)cc2)[nH]c2ccc(Cl)cc12 [PIGA823] | slow | 1.86 ± 0.17 | 272 ± 11 | 12200 ± 1300 | 3.3 ± 0.31 |  |  |  | steroidogenic efficacy, ranking in words (rat C6 glioma cells; C6 cells): highest efficacy; anxiolytic activity in EPM test (rat): significant anxiolytic activity |
| CCCCN(CCCC)C(=O)C(=O)c1c(-c2ccc(Cl)cc2)[nH]c2ccc(Cl)cc12 [PIGA835] | rapid | 1 ± 0.19 | 149 ± 4 | 25600 ± 2300 |  | 0.000967 | 963000 | 0.91 ± 0.11 |  |
| CCCN(CCC)C(=O)C(=O)c1c(-c2ccc(C)cc2)[nH]c2ccccc12 [PIGA839] | slow | 5.45 ± 0.6 | 254 ± 5 | 16300 ± 1400 | 5.5 ± 0.47 | 0.00015 | 28200 |  | steroidogenic efficacy, ranking in words (rat C6 glioma cells; C6 cells): highest efficacy; anxiolytic activity in EPM test (rat): significant anxiolytic activity; 36Cl- uptake into cerebral cortical synaptoneurosomes (GABAA receptor): potentiated; allopregnanolone in medium of treated cells (human glial cell model): high levels |
| CCCCCCN(CCCCCC)C(=O)C(=O)c1c(-c2ccccc2)[nH]c2ccc([N+](=O)[O-])cc12 [PIGA925] | rapid | 10 ± 1.13 | 166 ± 5 | 9710 ± 1000 |  | 0.00113 | 113000 | 12.2 ± 3.14 |  |
| CCCN(CCC)C(=O)C(=O)c1c(-c2ccc3ccccc3c2)[nH]c2ccccc12 [PIGA1128] | slow | 0.22 ± 0.05 | 179 ± 7 | 26100 ± 1500 | 0.31 ± 0.02 | 0.0003 | 1.35e+06 |  |  |
| CCCCCN(C)C(=O)C(=O)c1c(-c2ccc3ccccc3c2)[nH]c2ccccc12 [PIGA1138] | slow | 0.17 ± 0.03 | 275 ± 5 | 13100 ± 1400 |  | 0.000117 | 717000 | 0.34 ± 0.03 | steroidogenic efficacy, ranking in words (rat C6 glioma cells; C6 cells): highest efficacy |
| CCCCCCN(CCCCCC)C(=O)C(=O)c1c(-c2ccc(C(=O)O)cc2)[nH]c2ccccc12 [PIGA1214] | rapid | 332 ± 15 | 141 ± 4 | 92000 ± 5600 |  |  |  | 343 ± 15.9 |  |
| CCC(C)N(C)C(=O)c1cc2ccccc2c(-c2ccccc2Cl)n1 (stereo not shown) [PK11195, reference compound] |  |  | 153 ± 4 |  |  |  |  |  | EC50 (rat C6 glioma cells): 19500 ± 1800 nM; Bmax (TSPO [4]): 6498 ± 500 fmol/mg of proteins; anxiolytic effect in EPM test (rat): does not determine anxiolytic effect |
| CN1C(=O)CN=C(c2ccc(Cl)cc2)c2cc(Cl)ccc21 [Ro5-4864, reference compound] | rapid |  |  |  |  |  |  |  | EC50 (rat C6 glioma cells): 36200 ± 2500 nM; Emax at 100 µM (rat C6 glioma cells): 150 ± 4%; anxiolytic effect in EPM test (rat): does not determine anxiolytic effect |
